From paper PMC8286840, “Identifying SARS-CoV-2 antiviral compounds by screening for small molecule inhibitors of Nsp3 papain-like protease” (Biochemical Journal, 2021) come the findings set out here.

Structures can show the parent of a compound that is named as a salt. Where two headings read alike, the source gives them in different places.

Test [1] concerns the target T1, SARS-CoV-2 PLpro (nsp3 1564–1878) (Severe acute respiratory syndrome coronavirus 2, UniProt P0DTD1). The test can be described thus: biochemical. The conditions noted are these: low concentration screen, read-out: % of control remaining. Set-up: FRET-quenched peptide (Pro3) cleavage by PLpro, 10 min pre-incubation, slope over 20 min, normalised to no-compound control.

Test [2] deals with T1, SARS-CoV-2 PLpro (nsp3 1564–1878). Put plainly: biochemical. Details: FRET-quenched peptide (Pro3) cleavage by PLpro, 10 min pre-incubation, slope over 20 min, normalised to no-compound control. The conditions noted are these: high concentration screen, read-out: % of control remaining.

In the case of `Nc1c2c(nc3ccccc13)CCCC2` [9-Amino-1,2,3,4-tetrahydroacridine hydrochloride], the remaining activity at 1.25 µM in test [1] (Well no.=157) worked out at 102%. The remaining activity at 3.75 µM in test [2] (Well no.=157) stood at 102%.
Consider `Clc1cnc(Oc2ccc(Oc3ncc(Cl)cc3Cl)cc2)c(Cl)c1` [TCPOBOP], for which the remaining activity at 1.25 µM in test [1] (Well no.=1425) came to 102%. Moreover, the remaining activity at 3.75 µM in test [2] (Well no.=1425) was 102%.
For `O=C(O)CCCc1ccccc1` [Sodium Phenylbutyrate], the remaining activity at 1.25 µM in test [1] (Well no.=1582) amounted to 106%. In test [2] (Well no.=1582), the remaining activity at 3.75 µM was determined as 103%.
Regarding `O=CC[C@@H](O)[C@H](O)[C@H](O)CO` [2-Deoxy-D-glucose], the remaining activity at 1.25 µM in test [1] (Well no.=8302) was 100%. In addition, the remaining activity at 3.75 µM in test [2] (Well no.=8302) amounted to 101%.
Turning to `CCCCCCCCCCCCCCCC(=O)O` [Palmitic acid], the remaining activity at 1.25 µM in test [1] (Well no.=7077) is 98.9%. In addition, the remaining activity at 3.75 µM in test [2] (Well no.=7077) was determined as 94.2%.
Regarding `CO[C@]1(CC[C@@H](C)CO[C@@H]2O[C@H](CO)[C@@H](O)[C@H](O)[C@H]2O)O[C@H]2C[C@H]3[C@@H]4CC=C5C[C@@H](O[C@@H]6O[C@H](CO)[C@@H](O[C@@H]7O[C@@H](C)[C@H](O)[C@@H](O)[C@H]7O)[C@H](O)[C@H]6O[C@@H]6O[C@@H](C)[C@H](O)[C@@H](O)[C@H]6O)CC[C@]5(C)[C@H]4CC[C@]3(C)[C@H]2[C@@H]1C` [Methyl protodioscin], the remaining activity at 1.25 µM in test [1] (Well no.=6208) was 101%. For the same compound, the remaining activity at 3.75 µM in test [2] (Well no.=6208) was found to be 93.7%.
`CC(C)=CCC[C@](C)(O)[C@H]1CC[C@]2(C)[C@@H]1[C@H](O)C[C@@H]1[C@@]3(C)CC[C@H](O)C(C)(C)[C@@H]3[C@@H](O)C[C@]12C` [(20S)-Protopanaxatriol]: the remaining activity at 1.25 µM in test [1] (Well no.=8387) stood at 96.6%. For the same compound, the remaining activity at 3.75 µM in test [2] (Well no.=8387) amounted to 91.4%.
For the compound `Nc1ccc(S(=O)(=O)Nc2cncc(Cl)n2)cc1` [Sulfaclozine (sodium)], in test [1] (Well no.=7458), the remaining activity at 1.25 µM is 96.2%. For the same compound, in test [2] (Well no.=7458), the remaining activity at 3.75 µM is 93.3%.
Regarding `O=P(O)(O)C(O)(Cn1ccnc1)P(=O)(O)O` [Zoledronic acid], the remaining activity at 1.25 µM in test [1] (Well no.=1881) worked out at 100%; in test [1] (Well no.=5578) it was 102%. In addition, the remaining activity at 3.75 µM in test [2] (Well no.=1881) amounted to 97.1%; in test [2] (Well no.=5578), 98.1%.
Turning to `CC(=O)c1ccc(S(=O)(=O)NC(=O)NC2CCCCC2)cc1` [Acetohexamide], the remaining activity at 1.25 µM in test [1] (Well no.=18) came out at 93.4%. In addition, the remaining activity at 3.75 µM in test [2] (Well no.=18) was 98.9%.
Consider `CN1[C@@H]2CC[C@H]1C[C@@H](OC(=O)c1c[nH]c3ccccc13)C2` [Tropisetron], for which the remaining activity at 1.25 µM turned out to be 99.1% in test [1] (Well no.=2008) and 103% in test [1] (Well no.=6607). Further, the remaining activity at 3.75 µM in test [2] (Well no.=2008) came out at 101%.
As for `CC(C[N+](C)(C)C)OC(N)=O` (stereo not shown) [Bethanechol chloride], the remaining activity at 1.25 µM in test [1] (Well no.=322) stood at 102%. The remaining activity at 3.75 µM in test [2] (Well no.=322) turned out to be 102%.
With `CN(C)CCCSc1ccccc1NC(=O)/C=C/c1ccccc1` [Cinanserin], in test [1] (Well no.=2094), the remaining activity at 1.25 µM amounted to 101%. Moreover, the remaining activity at 3.75 µM in test [2] (Well no.=2094) is 101%.
Regarding `CC(C)NCC(O)c1cc(O)cc(O)c1` (stereo not shown) [Metaproterenol hemisulfate], the remaining activity at 1.25 µM in test [1] (Well no.=826) worked out at 104%. Further, in test [2] (Well no.=826), the remaining activity at 3.75 µM was 100%.
For `C[C@@H](Oc1cc(-n2cnc3ccc(CN4CCN(C)CC4)cc32)sc1C(N)=O)c1ccccc1C(F)(F)F` [GSK461364], the remaining activity at 1.25 µM in test [1] (Well no.=5146) worked out at 102%. In addition, in test [2] (Well no.=5146), the remaining activity at 3.75 µM came to 103%.
For `COc1cccc([C@@]2(O)CCCC[C@@H]2CN(C)C)c1` [Tramadol], the remaining activity at 1.25 µM in test [1] (Well no.=2002) stood at 104%. Besides, the remaining activity at 3.75 µM in test [2] (Well no.=2002) turned out to be 104%.
As to `NCCCCNCCCN` [Spermidine], the remaining activity at 1.25 µM in test [1] (Well no.=7069) was 107%. Besides, the remaining activity at 3.75 µM in test [2] (Well no.=7069) came out at 105%.
For the compound `NCc1c[nH]c(=S)n1[C@@H]1CCc2c(F)cc(F)cc2C1` [(R)-Nepicastat HCl], the remaining activity at 1.25 µM in test [1] (Well no.=8886) was determined as 91.4%. The remaining activity at 3.75 µM in test [2] (Well no.=8886) came to 92%.
As to `Nc1ccn([C@@H]2O[C@H](CO)[C@@H](O)[C@H]2O)c(=O)n1` [Cytidine], the remaining activity at 1.25 µM in test [1] (Well no.=5054) came to 97.5%; in test [1] (Well no.=6205), 108%; in test [1] (Well no.=8014), 98.6%. Further, the remaining activity at 3.75 µM in test [2] (Well no.=5054) worked out at 100%; in test [2] (Well no.=6205) it was 110%; in test [2] (Well no.=8014), 97.3%.
Take `C[C@@H](Nc1cc(NS(=O)(=O)N2CCC2)nc(SCc2cccc(F)c2F)n1)[C@@H](O)CO` [SRT3109]: the remaining activity at 1.25 µM in test [1] (Well no.=8607) worked out at 108%. For the same compound, in test [2] (Well no.=8607), the remaining activity at 3.75 µM amounted to 104%.
For the compound `Cc1cc(SCc2sc(-c3ccc(C(F)(F)F)c(F)c3)nc2C)ccc1OCC(=O)O` [GW0742], the remaining activity at 1.25 µM in test [1] (Well no.=5214) amounted to 100%. Further, the remaining activity at 3.75 µM in test [2] (Well no.=5214) was 98.5%.
On to `CC(C)(C[C@H]1CN(S(=O)(=O)c2cccc(C(F)(F)F)c2)c2cc(-c3cc(F)cc(OC(F)F)c3)ccc2O1)C(=O)O` [Cintirorgon], for which the remaining activity at 1.25 µM in test [1] (Well no.=8171) is 99.9%. In test [2] (Well no.=8171), the remaining activity at 3.75 µM worked out at 98.6%.
Turning to `COc1cc(/C=C(\C#N)C(=O)c2ccc(O)c(O)c2)cc(I)c1O` [I-OMe-Tyrphostin AG 538], the remaining activity at 1.25 µM in test [1] (Well no.=1420) is 93%. Also, the remaining activity at 3.75 µM in test [2] (Well no.=1420) is 92.9%.
With `O=c1n(CCCN2CCN(c3cccc(Cl)c3)CC2)nc2ccccn12` [Trazodone hydrochloride], the remaining activity at 1.25 µM in test [1] (Well no.=1339) was 102%. For the same compound, the remaining activity at 3.75 µM in test [2] (Well no.=1339) amounted to 104%.
Take `O=C(O)Cc1sc(-c2ccccc2)nc1-c1ccc(Cl)cc1` [Fentiazac]: in test [1] (Well no.=1772), the remaining activity at 1.25 µM worked out at 100%. In addition, the remaining activity at 3.75 µM in test [2] (Well no.=1772) was determined as 97.2%.
Turning to `NC(=O)c1nnn(Cc2cc(Cl)c(C(=O)c3ccc(Cl)cc3)c(Cl)c2)c1N` [Carboxyamidotriazole], the remaining activity at 1.25 µM in test [1] (Well no.=5819) worked out at 94.7%. In addition, the remaining activity at 3.75 µM in test [2] (Well no.=5819) was found to be 89.8%.
In the case of `Oc1cc(O)c(Cl)cn1` [Gimeracil], the remaining activity at 1.25 µM in test [1] (Well no.=5056) stood at 101%. Besides, in test [2] (Well no.=5056), the remaining activity at 3.75 µM came out at 104%.
Take `Nc1nccc(/C=C/c2ccccc2)n1` [TCN238]: the remaining activity at 1.25 µM in test [1] (Well no.=7855) came out at 99.5%. In addition, the remaining activity at 3.75 µM in test [2] (Well no.=7855) worked out at 94.5%.
Turning to `Cc1nnc2ccc(-c3cccc(C(F)(F)F)c3)nn12` [3-Methyl-6-(3-[trifluoromethyl]phenyl)-1,2,4-triazolo[4,3-b]pyridazine], in test [1] (Well no.=828), the remaining activity at 1.25 µM stood at 106%. For the same compound, the remaining activity at 3.75 µM in test [2] (Well no.=828) was determined as 105%.
Regarding `CCCCCCCCCCOCCC(=O)O` [4-Oxatetradecanoic acid], the remaining activity at 1.25 µM in test [1] (Well no.=4357) worked out at 101%. Moreover, in test [2] (Well no.=4357), the remaining activity at 3.75 µM amounted to 107%.
